Assay results published in patent US12630579B2, “Proteolysis targeting compound with tissue targeting capability and use thereof” (TAI BI DI PHARMACEUTICAL TECHNOLOGY (SHIJIAZHUANG) CO. LTD, priority 2020, dated 2026).
pIC50: −log10 of the molar value. Converted amounts (≈) assume the structure as drawn.

What was measured:
[1] = test system: Liver cancer cells (HUH-7); test: Transmembrane test; assay type: in vitro ADME; details: HUH-7, 24 hours, arithmetic mean over concentrations
Protocol: (§1) Liver cancer cells (HUH-7) were seeded in a 6-well plate at a concentration of 4*10^5 cells/mL, 2 mL per well, and cultured overnight until the cells were adherent to the wall.
(§2) The next day, compound solutions were prepared as follows: WG compounds of present application and corresponding compounds of structure A were respectively weighed, prepared with pure DMSO into mother solutions of high concentration, then gradiently diluted to obtain compound solutions of 10 uM/30 uM/100 uM/150 uM/300 uM in 10% DMSO, and shaken to mix well.
When the cells were adherent to the wall under microscope observation, 200 uL of compound solutions were added to each well with a ratio of compound solution to culture medium at 1:10.
After culture for 24 hours, the culture medium was sucked out with a pipette, and the wells were then washed five times with phosphate buffer, 2 mL each time for 30 seconds, to ensure there were no compound residues in the environment of the cells. Solutions in the wells were thoroughly sucked up, and 150 uL RIPA Lysis Buffer was added into each well. Then the culture was continued on ice for 30 min to lyse the cells. Lysates were collected and centrifuged at […] for 1 h, and supernatants were collected and characterized with HPLC to determine the concentration of the compounds therein.
The solubility and changes of transmembrane efficiency of WG compounds relative to corresponding compounds of structure A were analyzed and calculated. An arithmetic mean value of transmembrane efficiency changes under different concentrations was calculated, thereby obtaining a reference value of the difference of transmembrane efficiency between two groups of compounds.

[2] = Solubility test (equilibrium solubility in deionized water, HPLC); assay type: physicochemical; details: thermodynamic from solid, 37° C.
Protocol: Series solutions of 1 nM/10 nM/100 nM/100 nM/1 uM/10 uM/100 uM/1 mM were prepared according to following steps: WG compounds to be tested in the present application and corresponding compounds of structure A were respectively weighed, dissolved in deionized water, and oscillated at 37° C. for 12 hours to reach dissolution equilibrium. The resulted solutions were filtered 3 times with a filter membrane, and filtrates were collected. Actual concentrations of the compounds in the solutions were determined with HPLC. A curve of actual concentration of the solution—planned concentration of the solution was drawn, and the turning point of the curve indicated the equilibrium concentration of the compounds.

[3] = test system: Liver cancer cells (HUH-7); test: Cell growth inhibition test (cck-8); assay type: cell-based; details: HUH-7, 72 hours
Protocol: Liver cancer cells (HUH-7) were seeded in a 96-well plate at a concentration of 2*10^4 cells/mL, 100 uL per well, and cultured overnight.
as §2, with “day, the cells were observed microscope to ensure adherence. Compound” for “day, compound”, “10 nM/100 nM/300 nM/1000 nM/3000 nM” for “10 uM/30 uM/100 uM/150 uM/300 uM”
Positive drug solutions in the control group were prepared with the same solvent and method, and only a single dosage was required. In this test, the positive drug solution is 1 uM lenvatinib.
After solution preparation was completed, 10 uL of compound solutions were added into each well of the 96-well plate, three duplicates for each dosage. The plate was gently shaken to allow the cells to repeatedly contact with the compound solutions, and then the plate was placed in an incubator to culture for 72 hours. 72 hours later, the plate was taken out and 10 uL cck-8 reagent was added into each well and shaken gently to mix well. Then the plate was placed in an incubator to culture for two hours. Two hours later, the plate was taken out and analyzed with a microplate reader to measure the absorbance of each well at a wavelength of 450 nm.
A graph can be drawn according to the gradient of concentrations, and the results can be compared directly.

[4] = test system: target protein in liver cancer cells (HUH-7); test: Proteolysis test (Western blot of target protein); assay type: cell-based; parameters: key to Protein content (blackness of experimental group / blank control group): blot blackness of treated / blank control (fraction of control); details: HUH-7, 24 hours
Protocol: as §1
as §2, with “nM/30 nM/100 nM/300 nM/1000 nM/3000 nM” for “uM/30 uM/100 uM/150 uM/300 uM”, “well. 200 uL of compound solutions were added to each well with a ratio of compound solution to culture medium at 1:10.” for “well.”
After culture for 24 hours, the culture medium was sucked out with a pipette, and then the wells were washed 3 times with PBS. Solutions in the wells were thoroughly sucked up, and 150 uL RIPA Lysis Buffer was added into each well. Then the culture was continued on ice for 30 min to lyse the cells.
Lysates were collected and centrifuged at 16000 rpm for 10 minutes. Supernatants were collected and the total protein content was normalized with a BCA kit to determine target protein contents with Western blot.
The results were analyzed with ImageJ. Blackness of each strip was measured and the protein was quantified for comparison analysis according to formula: Protein content=blackness value of the experimental group/blackness value of the blank control group.

| pIC50 ([3]; Homo sapiens) | SMILES | Transmembrane efficiency relative to corresponding compound of structure A (WGint4) [1] | solubility thermodynamic at 12 h [2] | DC50 [4] | Protein content (blackness of experimental group / blank control group) ([4]; dosage 1 nM) | Protein content (blackness of experimental group / blank control group) ([4]; dosage 10 nM) | Protein content (blackness of experimental group / blank control group) ([4]; dosage 30 nM) | Protein content (blackness of experimental group / blank control group) ([4]; dosage 100 nM) | Protein content (blackness of experimental group / blank control group) ([4]; dosage 300 nM) | pIC50 [3] | solubility thermodynamic ([2]; 12 hours) |
| --- | --- | --- | --- | --- | --- | --- | --- | --- | --- | --- | --- |
|  | COc1cc2c(Oc3ccc(NC(=O)C4(C(=O)Nc5ccc(F)cc5)CC4)cc3)ccnc2cc1OCCCOCCCOCCC(=O)N[C@H](C(=O)N1C[C@H](OP(=O)(O)OCCCCCCCCCC(=O)NC(COCCC(=O)NCCCNC(=O)CCCCOC2OC(CO)C(O)C(O)C2NC(C)=O)(COCCC(=O)NCCCNC(=O)CCCCOC2OC(CO)C(O)C(O)C2NC(C)=O)COCCC(=O)NCCCNC(=O)CCCCOC2OC(CO)C(O)C(O)C2NC(C)=O)C[C@H]1C(=O)NCc1ccc(-c2scnc2C)cc1)C(C)(C)C (some centres unmarked) [WG-4(00500639)] | WG-4 is about 17.1 times | 476 µM (≈ 1300 µg/mL) |  |  |  |  |  |  |  |  |
|  | COc1cc2c(Oc3ccc(NC(=O)C4(C(=O)Nc5ccc(F)cc5)CC4)cc3F)ccnc2cc1OCCCOCCCOCCC(=O)N[C@H](C(=O)N1C[C@H](OP(=O)(O)OCCCCCCCCCC(=O)NC(COCCC(=O)NCCCNC(=O)CCCCOC2OC(CO)C(O)C(O)C2NC(C)=O)(COCCC(=O)NCCCNC(=O)CCCCOC2OC(CO)C(O)C(O)C2NC(C)=O)COCCC(=O)NCCCNC(=O)CCCCOC2OC(CO)C(O)C(O)C2NC(C)=O)C[C@H]1C(=O)NCc1ccc(-c2scnc2C)cc1)C(C)(C)C (some centres unmarked) [WG-5(00600639)] | WG-5 is about 11.5 times | 731 µM (≈ 2010 µg/mL) |  |  |  |  |  |  |  |  |
| 6.68 | COc1cc2nccc(Oc3ccc(NC(=O)NC4CC4)c(Cl)c3)c2cc1C(=O)NCCCCCCC(=O)N[C@H](C(=O)N1C[C@H](O)C[C@H]1C(=O)NCc1ccc(-c2scnc2C)cc1)C(C)(C)C [WGint4 (003006)] |  | 31 µM (≈ 30 µg/mL) | 150 nM | 0.97 | 0.97 | 0.84 | 0.65 | 0.22 |  |  |
|  | CC(=O)N[C@H]1[C@H](OCCCCC(=O)NCCCNC(=O)CCOCC(COCCC(=O)NCCCNC(=O)CCCCO[C@@H]2O[C@H](CO)[C@H](O)[C@H](O)[C@H]2NC(C)=O)(COCCC(=O)NCCCNC(=O)CCCCO[C@@H]2O[C@H](CO)[C@H](O)[C@H](O)[C@H]2NC(C)=O)NC(=O)CCCCCCCCCOP(=O)(O)O[C@@H]2C[C@@H](C(=O)NCc3ccc(-c4scnc4C)cc3)N(C(=O)[C@@H](NC(=O)COCCOCCN(C)C(=O)c3cc(Oc4ccc(NC(=O)Nc5ccc(Cl)c(C(F)(F)F)c5)cc4)ccn3)C(C)(C)C)C2)O[C@H](CO)[C@H](O)[C@@H]1O [WG-3(00400639)] | WG-3 is about 15 times |  | 81.4 nM |  |  |  |  |  | 7.10 | 255 µM (≈ 681 µg/mL) |
|  | COc1cc2nccc(Oc3ccc(NC(=O)NC4CC4)c(Cl)c3)c2cc1C(=O)NCCCCCCC(=O)N[C@H](C(=O)N1C[C@H](OP(=O)(O)OCCCCCCCCCC(=O)NC(COCCC(=O)NCCCNC(=O)CCCCOC2OC(CO)C(O)C(O)C2NC(C)=O)(COCCC(=O)NCCCNC(=O)CCCCOC2OC(CO)C(O)C(O)C2NC(C)=O)COCCC(=O)NCCCNC(=O)CCCCOC2OC(CO)C(O)C(O)C2NC(C)=O)C[C@H]1C(=O)NCc1ccc(-c2scnc2C)cc1)C(C)(C)C (some centres unmarked) [WG-1 (00300639)] | about 9.2 times | 677 µM (≈ 1770 µg/mL) | 18 nM | 0.93 | 0.72 | 0.31 | 0.16 | 0.13 | 7.67 |  |
|  | COc1cc2nccc(Oc3ccc(NC(=O)NC4CC4)c(Cl)c3)c2cc1C(=O)NCCCCCCC(=O)N[C@H](C(=O)N1C[C@H](OP(=O)(O)OCCCCCCCCCC(=O)NC(CNC(=O)CCCCCCOC2OC(CO)C(O)C(O)C2NC(C)=O)CNC(=O)CCCCCCOC2OC(CO)C(O)C(O)C2NC(C)=O)C[C@H]1C(=O)NCc1ccc(-c2scnc2C)cc1)C(C)(C)C (some centres unmarked) [WG-2(00300629)] | WG-2 is about 8.3 times | 603 µM (≈ 1180 µg/mL) | 21.4 nM |  |  |  |  |  | 7.53 |  |
